Test results from patent US20070010671A1, “Novel quinazoline derivatives and methods of treatment related to the use thereof” (priority 2003, published 2007).
Counter-ions that a name gives are not always drawn.

What follows are molecules tested against MCH receptor (Homo sapiens, UniProt Q99705) (assay: High throughput functional screening FLIPR/FDSS6000: inhibition of MCH-evoked intracellular Ca2+ changes). Conditions: antagonist activity, 50 nM of MCH, FLIPR or FDSS; read-out: IC50.
Type: cell-based
Method in brief: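 Constitutively active non-endogenous MCH-R cells; Fluo4-AM 4 μM, 2.5 mM probenecid, 1 hr, 37° C; cpd 3 min, 37° C; MCH 50 nM (antagonist mode); kinetic Ca2+ read Ex488/Em530, 290 s.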

IC50 [nM]	Structure (SMILES)
4.9	CN(C)c1nc(N[C@H]2CC[C@@H](CNC(=O)Nc3c(Cl)cccc3Cl)CC2)nc2ccccc12 [Example 3, 1-(2,6-Dichloro-phenyl)-3-[cis-4-(4-dimethylamino-quinazolin-2-)ylamino)-cyclohexylmethyl]-urea hydrochloride]

Same assay, conditions: class by percent of control at 10^-7 M or IC50

Structure (SMILES)	class
CC(C)c1ccccc1NC(=S)N[C@H]1CC[C@@H](Nc2nc(N(C)C)c3ccccc3n2)CC1 [compound 256, N-(cis-4-{[4-(dimethylamino)quinazolin-2-yl]amino}cyclohexyl)-N′-(2-isopropylphenyl)thiourea]	1 (Class 1: The value of percent of control at 10^−7 M was less than 40% or the value of IC50 was less than 50 nM.)
CN(C)c1nc(N[C@H]2CC[C@@H](NC(=S)Nc3ccc(Br)cc3F)CC2)nc2ccccc12 [compound 234]	3 (Class 3: The value of percent of control at 10^−7 M was more than 60% or the value of IC50 was more than 200 nM.)
CN(C)c1nc(N[C@H]2CC[C@@H](CNC(=S)Nc3ccc4c(c3)CCC4)CC2)nc2ccccc12 [compound 747]	3 (Class 3: The value of percent of control at 10^−7 M was more than 60% or the value of IC50 was more than 200 nM.)
CN(C)c1nc(N[C@H]2CC[C@@H](CNC(=S)Nc3cc(Cl)c(Cl)cc3Cl)CC2)nc2ccccc12 [compound 668]	3 (Class 3: The value of percent of control at 10^−7 M was more than 60% or the value of IC50 was more than 200 nM.)
CN(C)c1nc(N[C@H]2CC[C@@H](NC(=S)Nc3ccc(NC(=O)OC(C)(C)C)cc3)CC2)nc2ccccc12 [compound 240]	3 (Class 3: The value of percent of control at 10^−7 M was more than 60% or the value of IC50 was more than 200 nM.)
CN(C)c1nc(N[C@H]2CC[C@@H](CNC(=O)Nc3ccc(F)c(F)c3)CC2)nc2ccccc12 [compound 522, N-(3,4-difluorophenyl)-N′-[(cis-4-{[4-(dimethylamino)quinazolin-2-yl]amino}cyclohexyl)methyl]urea]	1 (Class 1: The value of percent of control at 10^−7 M was less than 40% or the value of IC50 was less than 50 nM.)
COc1cc(NC(=S)NC[C@H]2CC[C@@H](Nc3nc(N(C)C)c4ccccc4n3)CC2)cc(OC)c1 [compound 683]	3 (Class 3: The value of percent of control at 10^−7 M was more than 60% or the value of IC50 was more than 200 nM.)
COc1ccc(CCNC(=S)NC[C@H]2CC[C@@H](Nc3nc(N(C)C)c4ccccc4n3)CC2)cc1OC [compound 665, N-[2-(3,4-dimethoxyphenyl)ethyl]-N′-[(cis-4-{[4-(dimethylamino)quinazolin-2-yl]amino}cyclohexyl)methyl]thiourea]	2 (Class 2: The value of percent of control at 10^−7 M was from 40% to 60% or the value of IC50 was from 50 nM to 200 nM.)
CN(C)c1nc(N[C@H]2CC[C@@H](NC(=S)NCc3ccc(Cl)cc3Cl)CC2)nc2ccccc12 [compound 294]	3 (Class 3: The value of percent of control at 10^−7 M was more than 60% or the value of IC50 was more than 200 nM.)
CCCCCCCOc1ccc(NC(=O)NC[C@H]2CC[C@@H](Nc3nc(N(C)C)c4ccccc4n3)CC2)cc1 [compound 554]	3 (Class 3: The value of percent of control at 10^−7 M was more than 60% or the value of IC50 was more than 200 nM.)
CCOC(=O)c1ccc(NC(=S)NC[C@H]2CC[C@@H](Nc3nc(N(C)C)c4ccccc4n3)CC2)cc1 [compound 696]	3 (Class 3: The value of percent of control at 10^−7 M was more than 60% or the value of IC50 was more than 200 nM.)
COc1ccc([N+](=O)[O-])cc1NC(=S)NC[C@H]1CC[C@@H](Nc2nc(N(C)C)c3ccccc3n2)CC1 [compound 725]	2 (Class 2: The value of percent of control at 10^−7 M was from 40% to 60% or the value of IC50 was from 50 nM to 200 nM.)
CN(C)c1nc(N[C@H]2CC[C@@H](NC(=S)Nc3cccc(C#N)c3)CC2)nc2ccccc12 [compound 225]	3 (Class 3: The value of percent of control at 10^−7 M was more than 60% or the value of IC50 was more than 200 nM.)
COC(=O)[C@H](Cc1ccccc1)NC(=O)NC[C@H]1CC[C@@H](Nc2nc(N(C)C)c3ccccc3n2)CC1 (relative stereo) [compound 462]	3 (Class 3: The value of percent of control at 10^−7 M was more than 60% or the value of IC50 was more than 200 nM.)
CN(C)c1nc(N[C@H]2CC[C@@H](CNC(=O)Nc3cc(C(F)(F)F)cc(C(F)(F)F)c3)CC2)nc2ccccc12 [compound 409]	3 (Class 3: The value of percent of control at 10^−7 M was more than 60% or the value of IC50 was more than 200 nM.)
CN(C)c1nc(N[C@H]2CC[C@@H](NC(=S)Nc3cccc(I)c3)CC2)nc2ccccc12 [compound 227]	2 (Class 2: The value of percent of control at 10^−7 M was from 40% to 60% or the value of IC50 was from 50 nM to 200 nM.)
COc1cccc(NC(=O)NC[C@H]2CC[C@@H](Nc3nc(N(C)C)c4ccccc4n3)CC2)c1 [compound 447, N-[(cis-4-{[4-(dimethylamino)quinazolin-2-yl]amino}cyclohexyl)methyl]-N′-(3-methoxyphenyl)urea]	2 (Class 2: The value of percent of control at 10^−7 M was from 40% to 60% or the value of IC50 was from 50 nM to 200 nM.)
Cc1ccc(NC(=S)NC[C@H]2CC[C@@H](Nc3nc(N(C)C)c4ccccc4n3)CC2)cc1C [compound 790]	3 (Class 3: The value of percent of control at 10^−7 M was more than 60% or the value of IC50 was more than 200 nM.)
CSc1cccc(NC(=O)NC[C@H]2CC[C@@H](Nc3nc(N(C)C)c4ccccc4n3)CC2)c1 [compound 517, N-[(cis-4-{[4-(dimethylamino)quinazolin-2-yl]amino}cyclohexyl)methyl]-N′-[3-(methylthio)phenyl]urea]	2 (Class 2: The value of percent of control at 10^−7 M was from 40% to 60% or the value of IC50 was from 50 nM to 200 nM.)

Same assay, conditions: class by percent of control at 10^-7 M or by IC50; read-out: class

IC50 [nM]	Structure (SMILES)
< 50	CCc1ccccc1NC(=O)N[C@H]1CC[C@@H](Nc2nc(N(C)C)c3ccccc3n2)CC1 [compound 95, N-(cis-4-{[4-(dimethylamino)quinazolin-2-yl]amino}cyclohexyl)-N′-(2-ethylphenyl)urea]
50 to 200	CSc1ccc(NC(=S)N[C@H]2CC[C@@H](Nc3nc(N(C)C)c4ccccc4n3)CC2)cc1 [compound 182, N-(cis-4-{[4-(dimethylamino)quinazolin-2-yl]amino}cyclohexyl)-N′-[4-(methylthio)phenyl]thiourea]
50 to 200	Cc1ccc(F)cc1NC(=O)N[C@H]1CC[C@@H](Nc2nc(N(C)C)c3ccccc3n2)CC1 [compound 838, N-(cis-4-{[4-(dimethylamino)quinazolin-2-yl]amino}cyclohexyl)-N′-(5-fluoro-2-methylphenyl)urea]
> 200	CCOC(=O)NC[C@H]1CC[C@@H](Nc2nc(N(C)C)c3ccccc3n2)CC1 [compound 874]
< 50	C=C(C)c1cccc(C(C)(C)NC(=O)N[C@H]2CC[C@@H](Nc3nc(N(C)C)c4ccccc4n3)CC2)c1 [compound 40, N-(cis-4-{[4-(dimethylamino)quinazolin-2-yl]amino}cyclohexyl)-N′-[1-(3-isopropenylphenyl)-1-methylethyl]urea]
> 200	CC(=O)c1ccc(NC(=O)N[C@H]2CC[C@@H](Nc3nc(N(C)C)c4ccccc4n3)CC2)cc1 [compound 6]
< 50	CCc1cccc(C)c1NC(=O)N[C@H]1CC[C@@H](Nc2nc(N(C)C)c3ccccc3n2)CC1 [compound 33, N-(cis-4-{[4-(dimethylamino)quinazolin-2-yl]amino}cyclohexyl)-N′-(2-ethyl-6-methylphenyl)urea]

Structure (SMILES)	IC50 [nM]
COc1ccc(NC(=O)N[C@H]2CC[C@@H](Nc3nc(N(C)C)c4ccccc4n3)CC2)cc1OC [compound 124, N-(3,4-dimethoxyphenyl)-N′-(cis-4-{[4-(dimethylamino)quinazolin-2-yl]amino}cyclohexyl)urea]	< 50

Same assay, conditions: class by percent of control at 10^−7 M or by IC50; read-out: class

IC50 [nM]	Structure (SMILES)
50 to 200	CN(C)c1nc(N[C@H]2CC[C@@H](CNC(=O)Nc3cccc(Cl)c3)CC2)nc2ccccc12 [Example 1022, N-(3-chlorophenyl)-N′-[(cis-4-{[4-(dimethylamino)quinazolin-2-yl]amino}cyclohexyl)methyl]urea]
50 to 200	CN(C)c1nc(N[C@H]2CC[C@@H](CNC(=O)c3ccc(Cl)cc3)C2)nc2ccccc12 [Example 1121, 4-chloro-N-[((1R,3S)-3-{[4-(dimethylamino)quinazolin-2-yl]amino}cyclopentyl)methyl]benzamide]
< 50	CN(C)c1nc(N[C@H]2CC[C@@H](NC(=O)c3ccnc(Oc4ccc(Cl)cc4)c3)CC2)nc2ccccc12 [Example 1074, 2-(4-chlorophenoxy)-N-(cis-4-{[4-(dimethylamino)quinazolin-2-yl]amino}cyclohexyl)isonicotinamide]
< 50	CN(C)c1nc(N[C@H]2CC[C@@H](C(=O)NCc3cc(F)c(F)c(F)c3)CC2)nc2ccccc12 [Example 1171, cis-4-{[4-(dimethylamino)quinazolin-2-yl]amino}-N-(3,4,5-trifluorobenzyl)cyclohexanecarboxamide]
< 50	CN(C)c1nc(N[C@H]2CC[C@@H](C(=O)NCc3ccc(F)cc3C(F)(F)F)CC2)nc2ccccc12 [Example 1174, cis-4-{[4-(dimethylamino)quinazolin-2-yl]amino}-N-[4-fluoro-2-(trifluoromethyl)benzyl]cyclohexanecarboxamide]
50 to 200	COc1cc(Cl)ccc1Oc1ccc(C(=O)N[C@H]2CC[C@@H](Nc3nc(N(C)C)c4ccccc4n3)CC2)cn1 [Example 1068, 6-(4-chloro-2-methoxyphenoxy)-N-(cis-4-{[4-(dimethylamino)quinazolin-2-yl]amino}cyclohexyl)nicotinamide]

Structure (SMILES)	IC50 [nM]
COc1ccc(NC(=O)N[C@H]2CC[C@@H](Nc3nc(N(C)C)c4ccccc4n3)CC2)cc1OC [Example 1010, N-(3,4-dimethoxyphenyl)-N′-(cis-4-{[4-(dimethylamino)quinazolin-2-yl]amino}cyclohexyl)urea]	< 50
